pIC50: −log10 of the molar value. Counter-ions that a name gives are not always drawn.
Key:
[1] = target: JAK3 enzyme (Homo sapiens (Human), UniProt P52333); experiment: JAK3 isolated enzyme high ATP Caliper endpoint assay; format: biochemical; conditions: 400 μM ATP, read-out: JAK-3 IC50
Method: JAK3 Isolated Enzyme High ATP Caliper Endpoint Assay
4 mM stock solutions of test compounds are prepared and serially diluted in 100% DMSO. […] Greiner 384 well plates are prepared containing 400 nl of serially diluted compound, standard and HPE/ZPE. Final top assay concentration is 80 μM as the assay dilution factor is fifty.
JAK3 enzyme stock is diluted to 2 nM in assay buffer (10 mM HEPES free acid pH 7.5, 10 mM HEPES free base pH 7.5, 10 mM MgCL2, 0.0005% Tween-20, 0.01% BSA) containing 2 mM DTT (all supplied by Sigma). ATP is made up at 10 mM stock in sterile water and diluted to 800 μM in assay buffer. Peptide (American peptide company) is made up at 30 mM in 100% DMSO and diluted to 3 μM in assay buffer.
Assays are performed in Greiner polypropylene 384 well plates. Following compound preparation within the plate 10 μl of enzyme in assay buffer containing DTT is added using a Multidrop Micro. Final assay concentration of enzyme is 1 nM. Compound and enzyme are pre-incubated for 60 minutes at room temperature using low evaporation lids before addition of 10 μl ATP/peptide mixture in assay buffer using a Multidrop Micro. […] Plates are foil sealed and incubated for a further 60 minutes at room temperature. Stop solution is added to the plates (20 μl/well) using a Multidrop Micro and plates are loaded onto the Caliper EZReader II. Data is generated by the shift in mobility of non-phosphorylated peptide substrates and phosphorylated products by electrophoresis within a chip and detected via LED induced fluorescence. Data is analysed using LabChip EZReader software which calculates the relative heights of the substrate and product peaks and reports product/product plus substrate peak ratio. Test compound data are subsequently expressed as percentage inhibition defined by HPE and ZPE values for each plate. Percentage inhibition in the presence of test compound is plotted against compound concentration on a log scale to determine an IC50 from the resultant sigmoid curve.

[2] = target: JAK1 enzyme (Homo sapiens (Human), UniProt P23458); experiment: JAK1 isolated enzyme high ATP Caliper endpoint assay; format: biochemical; conditions: 2.5 mM ATP, read-out: JAK-1 IC50;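 note: enzyme at 10 nM preincubated with inhibitor 30 min, then kinase reaction 120 min at room temperature, peptide phosphorylation read by microfluidic mobility shift with fluorescence, inhibition relative to HPE and ZPE plate controls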
Chain of JAK1 enzyme (P23458 whole entry): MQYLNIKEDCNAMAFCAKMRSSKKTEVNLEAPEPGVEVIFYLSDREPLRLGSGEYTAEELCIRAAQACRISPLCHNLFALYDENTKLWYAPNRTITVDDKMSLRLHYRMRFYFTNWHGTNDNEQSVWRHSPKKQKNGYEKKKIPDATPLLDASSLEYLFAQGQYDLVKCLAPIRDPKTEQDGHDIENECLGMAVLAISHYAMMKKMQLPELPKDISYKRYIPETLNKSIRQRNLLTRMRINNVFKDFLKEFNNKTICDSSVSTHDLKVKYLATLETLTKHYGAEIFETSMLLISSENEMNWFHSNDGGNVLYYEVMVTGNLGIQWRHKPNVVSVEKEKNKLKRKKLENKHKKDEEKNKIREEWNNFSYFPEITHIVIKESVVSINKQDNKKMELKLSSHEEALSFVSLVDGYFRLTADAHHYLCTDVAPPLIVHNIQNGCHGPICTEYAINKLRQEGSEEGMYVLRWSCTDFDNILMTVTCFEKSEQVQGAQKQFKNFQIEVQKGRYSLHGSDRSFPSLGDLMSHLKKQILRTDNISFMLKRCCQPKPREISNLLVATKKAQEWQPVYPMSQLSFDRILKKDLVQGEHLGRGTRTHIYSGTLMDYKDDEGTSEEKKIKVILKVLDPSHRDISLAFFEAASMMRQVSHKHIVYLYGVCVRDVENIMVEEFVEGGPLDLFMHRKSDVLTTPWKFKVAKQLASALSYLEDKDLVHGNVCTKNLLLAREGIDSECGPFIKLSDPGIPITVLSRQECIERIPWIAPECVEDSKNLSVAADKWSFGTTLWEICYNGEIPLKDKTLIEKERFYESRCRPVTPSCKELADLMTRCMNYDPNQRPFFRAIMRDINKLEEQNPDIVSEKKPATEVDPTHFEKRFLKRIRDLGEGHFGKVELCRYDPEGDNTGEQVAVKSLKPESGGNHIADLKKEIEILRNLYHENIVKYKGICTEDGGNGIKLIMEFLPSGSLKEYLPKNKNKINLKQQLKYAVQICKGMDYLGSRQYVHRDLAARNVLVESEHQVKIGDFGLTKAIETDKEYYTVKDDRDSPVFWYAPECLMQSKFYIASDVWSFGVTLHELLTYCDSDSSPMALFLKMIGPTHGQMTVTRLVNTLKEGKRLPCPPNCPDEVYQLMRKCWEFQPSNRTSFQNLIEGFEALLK
Method: JAK1 Isolated Enzyme High ATP Caliper Endpoint Assay
4 mM stock solutions of test compounds are prepared and serially diluted in 100% DMSO. A standard curve using PF-00956980 (commercially available from Sigma Aldrich) at a top concentration of 4 mM is also prepared. High percentage effect (HPE) is defined by 500 μM PF-00956980 and 0% effect (ZPE) is defined by 100% DMSO. Greiner 384 well plates are prepared containing 400 nl of serially diluted compound, standard and HPE/ZPE. Final top assay concentration is 80 μM as the assay dilution factor is fifty.
JAK1 enzyme (Invitrogen) stock solution is made up at 5.2 μM in sterile water. JAK1 enzyme stock is diluted to 20 nM in assay buffer (10 mM HEPES free acid pH 7.5, 10 mM HEPES free base pH 7.5, 10 mM MgCL2, 0.0005% Tween-20, 0.01% BSA) containing 2 mM DTT (all supplied by Sigma) with the addition of one protease tablet per 25 mls buffer (Roche). ATP is made up at 10 mM stock in sterile water and diluted to 5 mM in assay buffer. Peptide H236 (Caliper Life Sciences) is made up at 1.5 mM in 100% DMSO and diluted to 3 μM in assay buffer. Stop buffer comprises 140 mM HEPES, 22.5 mM EDTA (Sigma) and 0.15% coating reagent (Caliper Life Sciences).
Assays are performed in Greiner polypropylene 384 well plates. Following compound preparation within the plate 10 μl of enzyme in assay buffer containing DTT is added using a Multidrop Micro. Final assay concentration of enzyme is 10 nM. Compound and enzyme are pre-incubated for 30 minutes at room temperature using low evaporation lids before addition of 10 μl ATP/peptide mixture in assay buffer using a Multidrop Micro. Final assay concentrations are 2.5 mM ATP and 1.5 μM peptide. Plates are foil sealed and incubated for a further 120 minutes at room temperature. Stop solution is added to the plates (20 μl/well) using a Multidrop Micro and plates are loaded onto the Caliper EZReader II. Data is generated by the shift in mobility of non-phosphorylated peptide substrates and phosphorylated products by electrophoresis within a chip and detected via LED induced fluorescence. Data is analysed using LabChip EZReader software which calculates the relative heights of the substrate and product peaks and reports product/product plus substrate peak ratio. Test compound data are subsequently expressed as percentage inhibition defined by HPE and ZPE values for each plate. Percentage inhibition in the presence of test compound is plotted against compound concentration on a log scale to determine an IC50 from the resultant sigmoid curve.

Chain of JAK3 enzyme (P52333 whole entry): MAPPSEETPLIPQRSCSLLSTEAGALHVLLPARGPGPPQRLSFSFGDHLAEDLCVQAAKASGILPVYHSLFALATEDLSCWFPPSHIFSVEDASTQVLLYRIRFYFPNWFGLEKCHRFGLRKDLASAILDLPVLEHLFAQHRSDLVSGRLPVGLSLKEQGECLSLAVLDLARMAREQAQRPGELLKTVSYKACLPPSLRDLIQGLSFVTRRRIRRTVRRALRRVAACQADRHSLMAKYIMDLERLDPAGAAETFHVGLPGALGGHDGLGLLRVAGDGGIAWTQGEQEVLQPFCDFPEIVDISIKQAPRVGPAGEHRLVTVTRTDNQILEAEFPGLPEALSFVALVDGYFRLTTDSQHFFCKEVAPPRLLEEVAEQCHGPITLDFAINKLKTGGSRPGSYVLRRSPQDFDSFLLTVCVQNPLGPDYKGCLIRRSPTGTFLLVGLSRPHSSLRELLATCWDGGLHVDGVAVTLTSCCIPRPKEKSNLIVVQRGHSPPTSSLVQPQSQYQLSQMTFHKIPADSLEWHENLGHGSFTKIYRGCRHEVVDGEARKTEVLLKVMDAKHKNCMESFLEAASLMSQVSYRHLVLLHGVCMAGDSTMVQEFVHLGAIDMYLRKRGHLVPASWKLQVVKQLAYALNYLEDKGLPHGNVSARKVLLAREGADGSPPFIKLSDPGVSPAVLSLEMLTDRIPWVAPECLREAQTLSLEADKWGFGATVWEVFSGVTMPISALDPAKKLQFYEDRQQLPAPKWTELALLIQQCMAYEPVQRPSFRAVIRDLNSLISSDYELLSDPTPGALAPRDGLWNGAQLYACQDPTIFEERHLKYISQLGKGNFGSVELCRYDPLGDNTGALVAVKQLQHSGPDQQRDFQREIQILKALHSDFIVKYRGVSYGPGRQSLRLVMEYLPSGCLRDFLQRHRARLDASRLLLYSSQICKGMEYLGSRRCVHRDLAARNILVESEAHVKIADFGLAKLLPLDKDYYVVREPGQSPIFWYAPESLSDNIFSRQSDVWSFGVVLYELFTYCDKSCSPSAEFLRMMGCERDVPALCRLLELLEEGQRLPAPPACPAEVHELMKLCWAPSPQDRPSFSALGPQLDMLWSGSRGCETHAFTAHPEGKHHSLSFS

Compound | pIC50 [1] | pIC50 [2]
CCc1cc(O)c(F)cc1-c1ccc2c(-c3nc4c([nH]3)CCN(C(=O)c3ccc(F)cc3)C4)n[nH]c2c1 [Example 1, {2-[6-(2-Ethyl-5-fluoro-4-hydroxy-phenyl)-1H-indazol-3-yl]-1,4,6,7-tetrahydro-imidazo[4,5-c]pyridin-5-yl}-(4-fluoro-phenyl)-methanone] | > 9.22 | > 9.15
CCc1cc(O)c(F)cc1-c1ccc2c(-c3nc4c([nH]3)CCN(C(=O)c3ccsn3)C4)n[nH]c2c1 [Example 2, {2-[6-(2-Ethyl-5-fluoro-4-hydroxy-phenyl)-1H-indazol-3-yl]-1,4,6,7-tetrahydro-imidazo[4,5-c]pyridin-5-yl}-isothiazol-3-yl-methanone] | 9.30 | 7.34
CCc1cc(O)c(F)cc1-c1ccc2c(-c3nc4c([nH]3)CCN(S(=O)(=O)c3ccc(N5CCOCC5)nc3)C4)n[nH]c2c1 [Example 6, 5-Ethyl-2-fluoro-4-{3-[5-(6-morpholin-4-yl-pyridine-3-sulfonyl)-4,5,6,7-tetrahydro-1H-imidazo[4,5-c]pyridin-2-yl]-1H-indazol-6-yl}-phenol] | 8.89 | 8.08
CCc1cc(O)c(F)cc1-c1ccc2c(-c3nc4c([nH]3)CCN(S(=O)(=O)c3ccc(Oc5ccccc5)nc3)C4)n[nH]c2c1 [Example 7, 5-Ethyl-2-fluoro-4-{3-[5-(6-phenoxy-pyridine-3-sulfonyl)-4,5,6,7-tetrahydro-1H-imidazo[4,5-c]pyridin-2-yl]-1H-indazol-6-yl}-phenol] | 8.82 | 8.60
CCc1cc(O)c(F)cc1-c1ccc2c(-c3nc4c([nH]3)CCN(C(=O)c3ccc(Cl)cn3)CC4)n[nH]c2c1 [Example 8, (5-Chloro-pyridin-2-yl)-{2-[6-(2-ethyl-5-fluoro-4-hydroxy-phenyl)-1H-indazol-3-yl]-4,5,7,8-tetrahydro-1H-imidazo[4,5-d]azebin-6-yl}-methanone] | 8.85 | 8.54
CCc1cc(O)c(F)cc1-c1ccc2c(-c3nc4c([nH]3)CCN(C(=O)c3cc(C#N)ccn3)CC4)n[nH]c2c1 [Example 9, 2-{2-[6-(2-Ethyl-5-fluoro-4-hydroxy-phenyl)-1H-indazol-3-yl]-4,5,7,8-tetrahydro-1H-imidazo[4,5-d]azepine-6-carbonyl}-isonicotinonitrile] | 8.72 | 7.72
CCc1cc(O)c(F)cc1-c1ccc2c(-c3nc4c([nH]3)CCN(C(=O)c3ccc(F)cc3)CC4)n[nH]c2c1 [Example 10, {2-[6-(2-Ethyl-5-fluoro-4-hydroxy-phenyl)-1H-indazol-3-yl]-4,5,7,8-tetrahydro-1H-imidazo[4,5-d]azepin-6-yl}-(4-fluoro-phenyl)-methanone] | 8.89 | 8.35
CCc1cc(O)c(F)cc1-c1ccc2c(-c3nc4c([nH]3)CCN(C(=O)c3ccsn3)CC4)n[nH]c2c1 [Example 11, {2-[6-(2-Ethyl-5-fluoro-4-hydroxy-phenyl)-1H-indazol-3-yl]-4,5,7,8-tetrahydro-1H-imidazo[4,5-d]azepin-6-yl}-isothiazol-3-yl-methanone] | 9.00 | 8.60
CCc1cc(O)c(F)cc1-c1ccc2c(-c3nc4c([nH]3)CCN(S(=O)(=O)c3ccc(F)cc3)C4)n[nH]c2c1 [Example 12, 5-Ethyl-2-fluoro-4-{3-[5-(4-fluoro-benzenesulfonyl)-4,5,6,7-tetrahydro-1H-imidazo[4,5-c]pyridin-2-yl]-1H-indazol-6-yl}-phenol] | 8.80 | 8.92
CCc1cc(O)c(F)cc1-c1ccc2c(-c3nc4c([nH]3)CCN(C(=O)c3cnc(Oc5ccccc5F)cn3)C4)n[nH]c2c1 [Example 13, {2-[6-(2-Ethyl-5-fluoro-4-hydroxy-phenyl)-1H-indazol-3-yl]-1,4,6,7-tetrahydro-imidazo[4,5-c]pyridin-5-yl}-[5-(2-fluoro-phenoxy)-Dvrazin-2-yl]-methanone] | 8.44 | 8.82
CCc1cc(O)c(F)cc1-c1ccc2c(-c3nc4c([nH]3)CCN(Cc3ccccc3)CC4)n[nH]c2c1 [Example 14, 4-[3-(6-Benzyl-1,4,5,6,7,8-hexahydro-imidazo[4,5-d]azepin-2-yl)-1H-indazol-6-yl]-5-ethyl-2-fluoro-phenol] | 8.85 | 9.10
CCc1cc(O)c(F)cc1-c1ccc2c(-c3nc4c([nH]3)CCN(C(=O)c3ccc(Cl)cn3)C4)n[nH]c2c1 [Example 15, (5-Chloro-pyridin-2-yl)-{2-[6-(2-ethyl-5-fluoro-4-hydroxy-phenyl)-1H-indazol-3-yl]-1,4,6,7-tetrahydro-imidazo[4,5-d]pyridin-5-yl}-methanone] | 9.00 | 
CCc1cc(O)c(F)cc1-c1ccc2c(-c3nc4c([nH]3)CCN(C(=O)c3ccc(C#N)nc3)C4)n[nH]c2c1 [Example 16, 5-{2-[6-(2-Ethyl-5-fluoro-4-hydroxy-phenyl)-1H-indazol-3-yl]-1,4,6,7-tetrahydro-imidazo[4,5-c]pyridine-5-carbonyl}-pyridine-2-carbonitrile] | 8.72 | 9.15
CCc1cc(O)c(F)cc1-c1ccc2c(-c3nc4c([nH]3)CCN(Cc3ccc(O)cc3)C4)n[nH]c2c1 [Example 19, 5-Ethyl-2-fluoro-4-{3-[5-(4-hydroxy-benzyl)-4,5,6,7-tetrahydro-1H-imidazo[4,5-c]pyridin-2-yl]-1H-indazol-6-yl}-phenol] | 8.66 | 8.37
CCc1cc(O)c(F)cc1-c1ccc2c(-c3nc4c([nH]3)CCN(Cc3cccc(O)c3)C4)n[nH]c2c1 [Example 20, 5-Ethyl-2-fluoro-4-{3-[5-(3-hydroxy-benzyl)-4,5,6,7-tetrahydro-1H-imidazo[4,5-c]pyridin-2-yl]-1H-indazol-6-yl}-phenol] | 8.25 | 8.59
CCc1cc(O)c(F)cc1-c1ccc2c(-c3nc4c([nH]3)CCN(Cc3ccnc(C#N)c3)C4)n[nH]c2c1 [Example 21, 4-{2-[6-(2-Ethyl-5-fluoro-4-hydroxy-phenyl)-1H-indazol-3-yl]-1,4,6,7-tetrahydro-imidazo[4,5-c]pyridin-5-ylmethyl}-pyridine-2-carbonitrile] | 8.85 | 8.23
CCc1cc(O)c(F)cc1-c1ccc2c(-c3nc4c([nH]3)CCN(Cc3cccc(OC)c3)C4)n[nH]c2c1 [Example 22, 5-Ethyl-2-fluoro-4-{3-[5-(3-methoxy-benzyl)-4,5,6,7-tetrahydro-1H-imidazo[4,5-c]pyridin-2-yl]-1H-indazol-6-yl}-phenol formic acid salt] | 8.59 | 8.52
CCc1cc(O)c(F)cc1-c1ccc2c(-c3nc4c([nH]3)CCN(Cc3cnc5ccccc5c3)C4)n[nH]c2c1 [Example 23, 5-Ethyl-2-fluoro-4-[3-(5-quinolin-3-ylmethyl-4,5,6,7-tetrahydro-1H-imidazo[4,5-c]pyridin-2-yl)-1H-indazol-6-yl]-phenol] | 8.92 | 8.77
CCc1cc(O)c(F)cc1-c1ccc2c(-c3nc4c([nH]3)CCN(Cc3ccc(N5CCCCC5)nc3)C4)n[nH]c2c1 [Example 25, 5-Ethyl-2-fluoro-4-{3-[5-(3,4,5,6-tetrahydro-2H-[1,2′]bipyridinyl-5′-ylmethyl)-4,5,6,7-tetrahydro-1H-imidazo[4,5-c]pyridin-2-yl]-1H-indazol-6-yl}-phenol] |  | 8.40
{2-[6-(2-Ethyl-5-fluoro-4-hydroxy-phenyl)-1H-indazol-3-yl]-1,4,6,7-tetrahydro-imidazo[4,5-c]pyridin-5-yl}-isothiazol-3-yl-methanone [Example 3] |  | 8.43

From patent US8895544B2, “Indazoles” (Pfizer Limited, priority 2011, dated 2014)
